Several values for one entry are separate records, joined by “and”; a condition that tells them apart may be missing. Equal values may be shown once.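 48-hour exposure; five concentrations; linearly interpolated endpoints. GI50 is the concentration that inhibits growth by half. TGI marks complete inhibition of growth.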 Bounds are passed on as bounds.

Some test systems named below: SF-539 CNS; NCI-H460 lung; SNB-19 CNS; IGROV1 ovarian; MALME-3M melanoma; HCT-116 colon; HT29 colon; KM12 colon; ACHN renal; SF-295 CNS.
Common to all, as to assay: NCI anticancer screen, dose series, 48 h

With `OCCCCC#Cc1ccccc1C#Cc1ccc(O)cc1`, the GI50 is 17.9 µM in the test with SF-539 CNS; 20.6 µM with NCI-H460 lung; 19.2 µM with SNB-19 CNS; 9.56 µM in the test on IGROV1 ovarian; 20.9 µM with MALME-3M melanoma; 16.6 µM in the test with HCT-116 colon. Moreover, the GI50 is 9.41 µM in the test on HT29 colon, 14.5 µM with KM12 colon, 16.6 µM with ACHN renal and 16.2 µM in the test with SF-295 CNS. The TGI in the test with SF-539 CNS amounted to 35.9 µM; in the test with NCI-H460 lung, 48.6 µM; with SNB-19 CNS it was 35.9 µM; with IGROV1 ovarian it was 22.8 µM; with MALME-3M melanoma, 43 µM; in the test with HCT-116 colon, 31.8 µM. In addition, the TGI with HT29 colon was found to be 22.2 µM; with KM12 colon it was 30.9 µM; with ACHN renal it was 31.2 µM; in the test with SF-295 CNS, 32 µM.

With `O=C1NC(N/N=C\C(O)C(O)C(O)C(O)CO)=N/C1=C/c1ccccc1` (centres undefined), the GI50 in the test with SF-539 CNS was > 100 µM and 17.4 µM; in the test with NCI-H460 lung it was 75.8 µM and 11.8 µM and > 100 µM; in the test on SNB-19 CNS it was 58 µM and 15.3 µM and > 100 µM; in the test on IGROV1 ovarian, > 100 µM and 16.2 µM; in the test on MALME-3M melanoma, > 100 µM and 19.3 µM; in the test on HCT-116 colon, 52.2 µM and 16.4 µM and > 100 µM. The GI50 in the test on HT29 colon was > 100 µM and 23.2 µM; in the test with KM12 colon, 41.6 µM and 16.2 µM and > 100 µM; in the test on ACHN renal it was 80.6 µM and 14.7 µM and > 100 µM; in the test on SF-295 CNS, 84.1 µM and 16.2 µM and > 100 µM. The TGI in the test with SF-539 CNS was > 100 µM and 35.3 µM; in the test on NCI-H460 lung, > 100 µM and 25.6 µM; in the test on SNB-19 CNS it was > 100 µM and 33.3 µM; in the test with IGROV1 ovarian, > 100 µM and 33.3 µM; with MALME-3M melanoma, > 100 µM and 37.6 µM; in the test on HCT-116 colon, > 100 µM and 33.8 µM. Further, the TGI was > 100 µM and 44.5 µM in the test with HT29 colon; > 100 µM and 36.7 µM in the test with KM12 colon; > 100 µM and 28.1 µM in the test with ACHN renal; > 100 µM and 38.2 µM in the test on SF-295 CNS.

For the molecule `CNC(=O)NCC1OC(n2cnc3c(NC(=O)Nc4ccccc4)ncnc32)C(O[Si](C)(C)C(C)(C)C)C1O[Si](C)(C)C(C)(C)C` (centres undefined), the GI50 is 3.07 µM in the test with SF-539 CNS; 1.72 µM in the test on NCI-H460 lung; 4.57 µM in the test on SNB-19 CNS; 2.74 µM with IGROV1 ovarian; 2.98 µM in the test on MALME-3M melanoma; 2.11 µM with HCT-116 colon. The GI50 in the test on HT29 colon is 2.02 µM; with KM12 colon, 2.13 µM; in the test on ACHN renal it was 3.83 µM; with SF-295 CNS, 3.84 µM. Also, the TGI with SF-539 CNS was 13 µM; with NCI-H460 lung, 3.49 µM; in the test on SNB-19 CNS it was above 100 µM; in the test on IGROV1 ovarian it was 7.76 µM; with MALME-3M melanoma, 9.84 µM; in the test on HCT-116 colon, 4.31 µM. For the same molecule, the TGI was 3.74 µM with HT29 colon, 4.14 µM in the test with KM12 colon, above 100 µM in the test on ACHN renal and 31.8 µM with SF-295 CNS.

With `CCC(=O)N1C/C(=C/c2ccc(Cl)cc2)C(=O)/C(=C/c2ccc(Cl)cc2)C1`, the GI50 is 0.69 µM with SF-539 CNS; 1.12 µM in the test with NCI-H460 lung; 1.02 µM with SNB-19 CNS; 0.998 µM in the test with IGROV1 ovarian; 2.06 µM in the test with MALME-3M melanoma; 0.179 µM with HCT-116 colon. Besides, the GI50 was 0.248 µM in the test with HT29 colon, 0.25 µM in the test with KM12 colon, 0.745 µM with ACHN renal and 0.514 µM with SF-295 CNS. Further, the TGI in the test with SF-539 CNS stood at 1.91 µM; with NCI-H460 lung, 3.56 µM; in the test on SNB-19 CNS, 2.45 µM; in the test with IGROV1 ovarian, 2.55 µM; in the test with MALME-3M melanoma, 4.08 µM; in the test with HCT-116 colon, 0.435 µM. Further, the TGI with HT29 colon is 0.622 µM; in the test on KM12 colon, 0.665 µM; in the test on ACHN renal, 1.98 µM; in the test with SF-295 CNS it was 2.09 µM.

In the case of `CC(C)C1CO[C@]2(C)CCC(=O)N12` (some centres undefined), the TGI with SF-539 CNS, in the test on NCI-H460 lung, in the test on SNB-19 CNS, in the test on IGROV1 ovarian, in the test with MALME-3M melanoma and with HCT-116 colon was above 100 µM in each case. Also, the TGI in the test on HT29 colon, in the test with KM12 colon, with ACHN renal and with SF-295 CNS was above 100 µM each time.

Turning to `O=S(=O)(O)O`, the TGI in the test with SF-539 CNS amounted to 1840 µM; with NCI-H460 lung, 1210 µM; in the test on SNB-19 CNS it was 2580 µM; in the test with IGROV1 ovarian it was 2170 µM; with MALME-3M melanoma, 2050 µM; with HCT-116 colon, 914 µM. Besides, the TGI in the test with HT29 colon came out at 1450 µM; in the test with KM12 colon, 2150 µM; in the test with ACHN renal, 1550 µM; in the test with SF-295 CNS, 2060 µM.

`O=[N+]([O-])c1cccc(/C=N/NC2=CS(=O)(=O)C=C2)c1`: the TGI in the test on SF-539 CNS, with NCI-H460 lung, in the test with SNB-19 CNS, with IGROV1 ovarian, in the test on MALME-3M melanoma and with HCT-116 colon was above 100 µM each time. The TGI in the test with HT29 colon, with KM12 colon, in the test on ACHN renal and in the test with SF-295 CNS was above 100 µM in each case.

With `CO/N=C(\COc1ccc2c(=O)c3ccccc3oc2c1)c1ccccc1`, the GI50 in the test on SF-539 CNS is 19 µM; with NCI-H460 lung, 38.9 µM; in the test on SNB-19 CNS it was 54.5 µM; with IGROV1 ovarian, 39.6 µM; with MALME-3M melanoma, 19.1 µM; in the test with HCT-116 colon, 68.6 µM. Besides, the GI50 was 86.5 µM in the test on HT29 colon, 41.4 µM with KM12 colon, 24 µM in the test on ACHN renal and 28.7 µM in the test on SF-295 CNS. The TGI is 50.6 µM in the test with SF-539 CNS; above 100 µM in the test with NCI-H460 lung; above 100 µM in the test with SNB-19 CNS; above 100 µM in the test with IGROV1 ovarian; 48.3 µM in the test on MALME-3M melanoma; above 100 µM with HCT-116 colon. For the same molecule, the TGI in the test on HT29 colon was above 100 µM; with KM12 colon, above 100 µM; with ACHN renal, 52.7 µM; with SF-295 CNS, 78.1 µM.

With `COc1ccc(C(=O)Cn2c(C(=O)c3ccccc3)nc3ccccc32)cc1`, the GI50 with SF-539 CNS was 3.03 µM; in the test on NCI-H460 lung, 3.39 µM; with SNB-19 CNS it was 6.74 µM; in the test on IGROV1 ovarian, 6.19 µM; in the test on HCT-116 colon it was 2.25 µM; with HT29 colon it was 1.25 µM. The figures for the GI50 with KM12 colon, in the test with ACHN renal and in the test on SF-295 CNS were 1.64 µM, 6.23 µM and 3.19 µM, respectively. For the same molecule, the TGI in the test on SF-539 CNS, in the test on NCI-H460 lung, in the test on SNB-19 CNS, with IGROV1 ovarian, in the test with MALME-3M melanoma and in the test with HCT-116 colon was above 100 µM in each case. For the same molecule, the TGI in the test on HT29 colon, in the test on KM12 colon, with ACHN renal and with SF-295 CNS was above 100 µM throughout.

The record behind these values is PubChem BioAssay (NCI).
